Laboratory results from US20180000085A1, “USE OF PICOLINAMIDE COMPOUNDS WITH FUNGICIDAL ACTIVITY” (DOW AGROSCIENCES LLC, priority 2014, published 2018).

Assays:
Format in all cases: in vivo
Phakopsora pachyrhizi = assay: Asian soybean rust (PHAKPA) disease control; set-up: key: A: > 80; B: ≤ 80; C: Not Tested; D: No Activity Observed in the Reported Assay; conditions: 25 ppm; for PHAKPA disease control, 1DP: 1 Day Protectant; for PHAKPA disease control, 3DC: 3 Day Curative
Zymoseptoria tritici = assay: Leaf blotch of wheat (SEPTTR) disease control on wheat seedlings; conditions: low volume application, 125.1 g/H; for SEPTTR 1DP disease control rating, LV activity at 125.1 g/H: 1 day protectant; for SEPTTR 3DC disease control rating, LV activity at 125.1 g/H: 3 day curative
Puccinia triticina = assay: Wheat brown rust (PUCCRT) disease control on wheat seedlings; conditions: low volume application, 125.1 g/H; for PUCCRT 1DP disease control rating, LV activity at 125.1 g/H: 1 day protectant; for PUCCRT 3DC disease control rating, LV activity at 125.1 g/H: 3 day curative

| SMILES | PHAKPA disease control, 1DP (Phakopsora pachyrhizi) | PHAKPA disease control, 3DC (Phakopsora pachyrhizi) | SEPTTR 1DP disease control rating, LV activity at 125.1 g/H (Zymoseptoria tritici) | SEPTTR 3DC disease control rating, LV activity at 125.1 g/H (Zymoseptoria tritici) | PUCCRT 1DP disease control rating, LV activity at 125.1 g/H (Puccinia triticina) | PUCCRT 3DC disease control rating, LV activity at 125.1 g/H (Puccinia triticina) |
| --- | --- | --- | --- | --- | --- | --- |
| COc1ccnc(C(=O)NC(C)C(=O)OC(C)C(Oc2ccc(F)cc2)C2CCCC2)c1OCOC(C)=O (stereo not drawn) [Cmpd 910] | A (> 80) | B (≤ 80) | A (> 80) | A (> 80) | A (> 80) | A (> 80) |
| COc1ccnc(C(=O)N[C@@H](C)C(=O)O[C@@H](C)[C@H](Oc2cccc(Cl)c2)C2CCCC2)c1OCOC(C)=O [Cmpd 911, (S)-(1R,2S)-1-(3-chlorophenoxy)-1-cyclopentylpropan-2-yl-2-(3-(acetoxymethoxy)-4-methoxypicolinamido)propanoate] | A (> 80) | B (≤ 80) | A (> 80) | A (> 80) | A (> 80) | A (> 80) |
| COc1ccnc(C(=O)NC(C)C(=O)OC(C)C(Oc2ccc(Cl)cc2)C2CCCC2)c1OCOC(C)=O (stereo not drawn) [Cmpd 912] | B (≤ 80) | B (≤ 80) | A (> 80) | A (> 80) | A (> 80) | A (> 80) |
| COc1ccnc(C(=O)NC(C)C(=O)OC(C)C(OCC(C)C)C2CCCC2)c1OCOC(C)=O (stereo not drawn) [Cmpd 915] | A (> 80) | B (≤ 80) | B (≤ 80) | A (> 80) | A (> 80) | A (> 80) |
| COc1ccnc(C(=O)NC(C)C(=O)OC(C)C(Oc2ccc(C)cc2)C2CCCC2)c1OCOC(C)=O (stereo not drawn) [Cmpd 916] | A (> 80) | D | A (> 80) | B (≤ 80) | A (> 80) | A (> 80) |
| COc1cccc(OC(C2CCCC2)C(C)OC(=O)C(C)NC(=O)c2nccc(OC)c2OCOC(C)=O)c1 (stereo not drawn) [Cmpd 917] | B (≤ 80) | B (≤ 80) | B (≤ 80) | A (> 80) | A (> 80) | A (> 80) |
| COc1ccnc(C(=O)N[C@@H](C)C(=O)O[C@@H](C)[C@H](Oc2ccc(F)cc2)C2CCCC2)c1OC(C)=O [Cmpd 919] | A (> 80) | D | A (> 80) | A (> 80) | A (> 80) | A (> 80) |
| COc1ccnc(C(=O)N[C@@H](C)C(=O)O[C@@H](C)[C@H](Oc2cccc(Cl)c2)C2CCCC2)c1OC(C)=O [Cmpd 920, (S)-(1R,2S)-1-(3-chlorophenoxy)-1-cyclopentylpropan-2-yl-2-(3-acetoxy-4-methoxypicolinamido)propanoate] | B (≤ 80) | B (≤ 80) | A (> 80) | A (> 80) | A (> 80) | A (> 80) |
| COc1ccnc(C(=O)N[C@@H](C)C(=O)O[C@@H](C)[C@H](Oc2ccc(C)cc2)C2CCCC2)c1OC(C)=O [Cmpd 923] | A (> 80) | B (≤ 80) | B (≤ 80) | B (≤ 80) | A (> 80) | A (> 80) |
| COc1ccnc(C(=O)N[C@@H](C)C(=O)O[C@@H](C)[C@H](Oc2ccccc2)c2ccc(F)cc2)c1OCOC(C)=O [Cmpd 924] | A (> 80) | D | A (> 80) | A (> 80) | A (> 80) | A (> 80) |
| COc1ccnc(C(=O)N[C@@H](C)C(=O)O[C@@H](C)[C@H](Oc2ccccc2)c2ccc(F)cc2)c1OC(C)=O [Cmpd 925] | A (> 80) | B (≤ 80) | A (> 80) | A (> 80) | A (> 80) | A (> 80) |
